{
  "source": "patent US6160008A",
  "about": "“Pharmaceutical compositions comprising S-alkylisothiouronium derivatives” (priority 1996, dated 2000)",
  "key": {"[1]": {"tested_on": "mice exposed to an oxygen pressure of 3 atm", "assay": "Survival under oxygen pressure of 3 atm, mice (Table 15)", "type": "in vivo, F1 (CBAx57B1)", "details": "mice, 3 atm, 5 hours", "method": "Animals were exposed to oxygen under increased pressure in a hyperbaric chamber <<Mana-2≤≤ for treatment of infants above 1 year, which was adjusted for the experiments on animals. The hyperbaric chamber design permitted to create excessive pressure up to 3 atm and to observe animal behavior from outside.\nThe experiments were performed on males of F1 (CBAx57B1) mice line and on males of Wistar rat line. Animals were placed in the hyperbaric chamber in plastic boxes and the atmospheric air was replaced by oxygen. The period of compression-decompression was 10 minutes. The exposure of the animals to an oxygen pressure of 3 atm during a period of 2 hours caused only some increase in their motion activity. Further staying of rats and mice in those conditions led to a decrease in the motion activity, to asphyxia with short periods of excitement and cramps. The death of some animals was registered after 2.5-3 hours, 50% after 4 hours, and 75% of mice and 100% of rats were dead after 5 hours.\nWhen the influence of Difetur and Etyron was studied, the animals were exposed to an oxygen pressure of 3 atm during 5 hours if not otherwise specified. Preparations were injected 5-10 minutes before the session."}, "[2]": {"tested_on": "increased oxygen pressure", "details": "cited from earlier work"}, "α1-adrenoreceptors": {"tested_on": "α1-adrenoreceptors", "details": "cited from earlier work"}, "arterial blood pressure": {"tested_on": "arterial blood pressure", "assay": "Influence of single intravenous injection on arterial blood pressure, heart rate and respiratory rate in anesthetized cats (Table 1, FIGS. 1-10)", "type": "in vivo", "details": "5 mg/kg i.v.; for Hypertensive activity (increase of SAP): given as \"> SAP by\"", "method": "Experiments were performed on 52 anesthetized (intraperitoneally with 45 mg/kg of sodium pentobarbital) cats of both genders with body mass of 2.8-4.2 kg. Arterial pressure was measured by a mercury pressure gauge; measurements were also performed by ECG. Simultaneously, the respiratory frequency was registered. The hypertensive effect was determined as percent increase relative to the initial level of systolic arterial pressure (SAP). The duration of observation was 1-3 hours; the heart rate (HR) was calculated on the basis of ECG."}, "[3]": {"tested_on": "acute arterial hypotension, caused by the hexamethonium administration", "assay": "Acute arterial hypotension caused by hexamethonium (Table 5)", "type": "in vivo, cats", "method": "The influence of S-ethylisothiouronium diethylphosphate on the background of arterial hypotension caused by a known ganglion blocker-hexamethonium has been studied in cats. Hexamethonium was injected intra- venously at a dose of 10 mg/kg. Vagus and schiatic nerve stimulation was carried out by electrical pulsator with the above-threshold rectangular pulse current having a duration of 1 msec, irritation time of 10 sec, and frequency of 20 pulses/sec (peripheral section of the vagus nerve), and frequency of 300 pulses/sec (central end of the schiatic nerve)."}, "[4]": {"tested_on": "acute arterial hypotension, caused by prazosin", "assay": "Acute arterial hypotension caused by prazosin (Table 3)", "type": "in vivo, cats", "details": "prazosin alone 1 mg/kg i.v.", "method": "It was of interest to study the influence of S-ethylisothiouronium diethylphosphate the in case of hypotension caused by the injection of a known α1-adreno blocker, namely prazosin. Prazosin was injected singly intravenously at a dose of 1 mg/kg."}, "[5]": {"details": "listed as S-ethylisothiuronium methylphosphate"}, "[6]": {"details": "listed as S-isobutylisothiuronium isobutylphosphate"}, "[7]": {"details": "listed as S-isopropylisothiuronium isopropylphosphite"}, "[8]": {"details": "listed as S-isopropylisothiuronium metaphosphate"}, "[9]": {"details": "listed as S-methylisothiuronium dimethylphosphate"}, "[10]": {"details": "hexamethonium alone 10 mg/kg i.v., 2nd min"}},
  "note": "“Also recorded” adds a separate entry of the source.",
  "data": [
    {"compound": "Br.CCSC(=N)N", "note": "[Etyron, S-ethylisothiouronium bromide, reference compound]", "values": [
      {"measurement": "Number of survived animals", "setting": "[1]; 10 mg/kg", "result": 70, "unit": "%"},
      {"measurement": "Number of survived animals", "setting": "[1]; 20 mg/kg", "result": 50, "unit": "%"},
      {"measurement": "Protective activity in words", "setting": "[2]", "result": "protective activity under increased oxygen pressure"}
    ]},
    {"compound": "CNCC(O)c1cccc(O)c1.Cl", "note": "(centres unmarked) [Mezaton, 1-(m-hydroxyphenyl)-2-methylaminoethanol hydrochloride]", "values": [
      {"measurement": "Pharmacological action in words", "setting": "α1-adrenoreceptors; in vivo, hydrochloride", "result": "selectively stimulates α1-adrenoreceptors; also recorded: practically does not have cardiostimulating effect"},
      {"measurement": "Duration of anti-hypotensive effect", "setting": "α1-adrenoreceptors; single intravascular injection", "result": "approximately 20 minutes"}
    ]},
    {"compound": "CCCCSC(=N)N", "note": "[S-butylisothiouronium dibutylphosphate, S-butylisothiouronium di-butylphosphate]", "values": [
      {"measurement": "Duration of effect", "setting": "arterial blood pressure", "result": 1, "unit": "h"},
      {"measurement": "Hypertensive activity, % (increase relative to the initial level of SAP)", "setting": "arterial blood pressure", "result": 5.6, "unit": "%"},
      {"measurement": "Hypertensive effect in words", "setting": "arterial blood pressure", "result": "slightly increases arterial blood pressure"},
      {"measurement": "RR (influence on respiratory rate)", "setting": "arterial blood pressure", "result": "No influence"},
      {"measurement": "Time to achieve maximum effect", "setting": "arterial blood pressure", "result": 30, "unit": "min"},
      {"measurement": "Hypertensive activity (increase of SAP)", "setting": "arterial blood pressure", "result": 7, "unit": "mm Hg"},
      {"measurement": "Duration of effect", "setting": "arterial blood pressure; listed as S-butylisothiuronium dibutylphosphate", "result": "up to 1 hour"}
    ]},
    {"compound": "CCSC(=N)N", "note": "[S-ethylisothiouronium metaphosphate]", "values": [
      {"measurement": "Duration of effect", "setting": "arterial blood pressure", "result": 1.5, "unit": "h"},
      {"measurement": "Hypertensive activity, % (increase relative to the initial level of SAP)", "setting": "arterial blood pressure", "result": 15, "unit": "%"},
      {"measurement": "RR (influence on respiratory rate)", "setting": "arterial blood pressure", "result": "does not influence RR"},
      {"measurement": "Time to achieve maximum effect", "setting": "arterial blood pressure", "result": 2, "unit": "min"},
      {"measurement": "Hypertensive activity (increase of SAP)", "setting": "arterial blood pressure", "result": 25, "unit": "mm Hg"},
      {"measurement": "Hypertensive activity (increase of SAP)", "setting": "arterial blood pressure; [5]", "result": 25, "unit": "mm Hg"},
      {"measurement": "Duration of effect", "setting": "arterial blood pressure; [5]", "result": "up to 1 hour"},
      {"measurement": "Hypertensive activity, % (increase relative to the initial level of SAP)", "setting": "arterial blood pressure; [5]", "result": 14.8, "unit": "%"},
      {"measurement": "Influence on HR", "setting": "arterial blood pressure; [5]", "result": "Bradycardia"},
      {"measurement": "RR (influence on respiratory rate)", "setting": "arterial blood pressure; [5]", "result": "No influence"}
    ]},
    {"compound": "CC(C)CSC(=N)N", "note": "[S-isobutylisothiouronium isobutylphosphite]", "values": [
      {"measurement": "Duration of effect", "setting": "arterial blood pressure", "result": "about 2 hour"},
      {"measurement": "Hypertensive activity, % (increase relative to the initial level of SAP)", "setting": "arterial blood pressure", "result": 14.8, "unit": "%"},
      {"measurement": "Hypertensive effect in words", "setting": "arterial blood pressure", "result": "moderate hypertensive effect"},
      {"measurement": "Influence on HR", "setting": "arterial blood pressure", "result": "increasing HR"},
      {"measurement": "RR (influence on respiratory rate)", "setting": "arterial blood pressure", "result": "increasing HR and RR"},
      {"measurement": "Time to achieve maximum effect", "setting": "arterial blood pressure", "result": 2, "unit": "min"},
      {"measurement": "Hypertensive activity (increase of SAP)", "setting": "arterial blood pressure", "result": 22.6, "unit": "mm Hg"},
      {"measurement": "Duration of effect", "setting": "arterial blood pressure; [6]", "result": 2, "unit": "h"},
      {"measurement": "RR (influence on respiratory rate)", "setting": "arterial blood pressure; [6]", "result": "Increases"}
    ]},
    {"compound": "CC(C)SC(=N)N", "note": "[S-isopropylisothiouronium isopropylphosphite]", "values": [
      {"measurement": "Duration of effect", "setting": "arterial blood pressure", "result": "at least 2 hour"},
      {"measurement": "Hypertensive activity, % (increase relative to the initial level of SAP)", "setting": "arterial blood pressure", "result": "~30", "unit": "%"},
      {"measurement": "Hypertensive effect in words", "setting": "arterial blood pressure", "result": "one of the most active substances"},
      {"measurement": "Influence on HR", "setting": "arterial blood pressure", "result": "Transient bradycardia"},
      {"measurement": "RR (influence on respiratory rate)", "setting": "arterial blood pressure", "result": "does not influence RR"},
      {"measurement": "Time to achieve maximum effect", "setting": "arterial blood pressure", "result": "second minute"},
      {"measurement": "Hypertensive activity (increase of SAP)", "setting": "arterial blood pressure; [7]", "result": 40, "unit": "mm Hg"},
      {"measurement": "Duration of effect", "setting": "arterial blood pressure; [7]", "result": 2, "unit": "h"},
      {"measurement": "Hypertensive activity, % (increase relative to the initial level of SAP)", "setting": "arterial blood pressure; [7]", "result": 28.8, "unit": "%"},
      {"measurement": "Influence on HR", "setting": "arterial blood pressure; [7]", "result": "Bradycardia"},
      {"measurement": "RR (influence on respiratory rate)", "setting": "arterial blood pressure; [7]", "result": "No influence"},
      {"measurement": "Time to achieve maximum effect", "setting": "arterial blood pressure; [7]", "result": 2, "unit": "min"}
    ]},
    {"compound": "CC(C)SC(=N)N", "note": "[S-isopropylisothiouronium metaphosphate]", "values": [
      {"measurement": "Duration of effect", "setting": "arterial blood pressure", "result": "≥ 2", "unit": "h"},
      {"measurement": "Hypertensive effect in words", "setting": "arterial blood pressure", "result": "slowly increases SAP"},
      {"measurement": "RR (influence on respiratory rate)", "setting": "arterial blood pressure", "result": "does not influence RR"},
      {"measurement": "Time to achieve maximum effect", "setting": "arterial blood pressure", "result": 15, "unit": "min"},
      {"measurement": "Hypertensive activity (increase of SAP)", "setting": "arterial blood pressure; [8]", "result": 27, "unit": "mm Hg"},
      {"measurement": "Duration of effect", "setting": "arterial blood pressure; [8]", "result": 2, "unit": "h"},
      {"measurement": "Hypertensive activity, % (increase relative to the initial level of SAP)", "setting": "arterial blood pressure; [8]", "result": 20.3, "unit": "%"},
      {"measurement": "Influence on HR", "setting": "arterial blood pressure; [8]", "result": "Bradycardia"},
      {"measurement": "RR (influence on respiratory rate)", "setting": "arterial blood pressure; [8]", "result": "Increases"},
      {"measurement": "Time to achieve maximum effect", "setting": "arterial blood pressure; [8]", "result": 15, "unit": "min"}
    ]},
    {"compound": "CSC(=N)N", "note": "[S-methylisothiouronium dimethylphosphate]", "values": [
      {"measurement": "Duration of effect", "setting": "arterial blood pressure", "result": 1.5, "unit": "h"},
      {"measurement": "Hypertensive activity, % (increase relative to the initial level of SAP)", "setting": "arterial blood pressure", "result": "~30", "unit": "%"},
      {"measurement": "Hypertensive activity (increase of SAP)", "setting": "arterial blood pressure; [9]", "result": 27.5, "unit": "mm Hg"},
      {"measurement": "Duration of effect", "setting": "arterial blood pressure; [9]", "result": 1.5, "unit": "h"},
      {"measurement": "Hypertensive activity, % (increase relative to the initial level of SAP)", "setting": "arterial blood pressure; [9]", "result": 20.8, "unit": "%"}
    ]},
    {"compound": "C[N+](C)(C)CCCCCC[N+](C)(C)C", "note": "[hexamethonium, reference compound]", "values": [
      {"measurement": "AP after hexonium injection", "setting": "[3]; [10]", "result": "91.0 ± 10.0", "unit": "mm Hg"},
      {"measurement": "HF after hexonium injection", "setting": "[3]; [10]", "result": "137.6 ± 13.4", "unit": "per min."},
      {"measurement": "AP decrease", "setting": "[3]; hexamethonium alone, 2 minutes", "result": 46, "unit": "%"}
    ]},
    {"compound": "COc1cc2nc(N3CCN(C(=O)c4ccco4)CC3)nc(N)c2cc1OC", "note": "[prazosin, reference compound]", "values": [
      {"measurement": "AP after prazosin", "setting": "[4]; 5th min", "result": "106.3 ± 2.4", "unit": "mm Hg"},
      {"measurement": "HF after prazosin", "setting": "[4]; 5th min", "result": "156.8 ± 9.0", "unit": "per min."},
      {"measurement": "Respiratory contraction frequency after prazosin", "setting": "[4]; 5th min", "result": "13.6 ± 2.9", "unit": "min⁻¹"},
      {"measurement": "AP decrease", "setting": "[4]; 5th minute", "result": 51, "unit": "mm Hg"}
    ]}
  ]
}
